Measurements published in paper PMC7781520 (Channels, 2020).

Molecular target: Kv1.3 voltage-gated K+ channel (Homo sapiens, UniProt P22001)
Format: cell-based

Chain of Kv1.3 voltage-gated K+ channel (P22001 whole entry): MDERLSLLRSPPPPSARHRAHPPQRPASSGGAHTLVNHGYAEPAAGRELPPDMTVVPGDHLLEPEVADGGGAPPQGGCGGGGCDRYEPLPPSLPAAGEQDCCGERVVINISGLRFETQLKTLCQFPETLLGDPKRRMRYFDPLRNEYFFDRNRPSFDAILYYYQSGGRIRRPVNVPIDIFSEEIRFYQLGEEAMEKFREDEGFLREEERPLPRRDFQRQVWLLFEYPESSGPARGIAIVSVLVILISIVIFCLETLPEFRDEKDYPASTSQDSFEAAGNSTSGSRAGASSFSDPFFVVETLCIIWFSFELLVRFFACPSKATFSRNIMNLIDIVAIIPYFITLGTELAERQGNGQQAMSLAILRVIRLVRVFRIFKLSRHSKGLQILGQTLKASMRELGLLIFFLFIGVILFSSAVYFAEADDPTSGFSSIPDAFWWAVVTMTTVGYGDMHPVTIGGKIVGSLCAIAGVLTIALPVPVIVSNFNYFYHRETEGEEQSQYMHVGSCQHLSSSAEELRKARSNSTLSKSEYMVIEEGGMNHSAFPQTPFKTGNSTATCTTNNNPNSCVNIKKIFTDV

CC[N+](CC)(CC)CC [TEA+]
IC50: 10.3 ± 0.71 mM
